Test results reported in patent publication US20250002471A1 (Gilead Sciences, Inc., priority 2020, published 2025).

Target: T1, TLR8 (Homo sapiens, UniProt Q9NR97)
T1 construct: lymphocytes, monocytes and dendritic cells that express TLR7, TLR8 and TLR9; endogenous in cells; host or cells: human PBMCs from healthy donors
T1 sequence (Q9NR97 27-1041): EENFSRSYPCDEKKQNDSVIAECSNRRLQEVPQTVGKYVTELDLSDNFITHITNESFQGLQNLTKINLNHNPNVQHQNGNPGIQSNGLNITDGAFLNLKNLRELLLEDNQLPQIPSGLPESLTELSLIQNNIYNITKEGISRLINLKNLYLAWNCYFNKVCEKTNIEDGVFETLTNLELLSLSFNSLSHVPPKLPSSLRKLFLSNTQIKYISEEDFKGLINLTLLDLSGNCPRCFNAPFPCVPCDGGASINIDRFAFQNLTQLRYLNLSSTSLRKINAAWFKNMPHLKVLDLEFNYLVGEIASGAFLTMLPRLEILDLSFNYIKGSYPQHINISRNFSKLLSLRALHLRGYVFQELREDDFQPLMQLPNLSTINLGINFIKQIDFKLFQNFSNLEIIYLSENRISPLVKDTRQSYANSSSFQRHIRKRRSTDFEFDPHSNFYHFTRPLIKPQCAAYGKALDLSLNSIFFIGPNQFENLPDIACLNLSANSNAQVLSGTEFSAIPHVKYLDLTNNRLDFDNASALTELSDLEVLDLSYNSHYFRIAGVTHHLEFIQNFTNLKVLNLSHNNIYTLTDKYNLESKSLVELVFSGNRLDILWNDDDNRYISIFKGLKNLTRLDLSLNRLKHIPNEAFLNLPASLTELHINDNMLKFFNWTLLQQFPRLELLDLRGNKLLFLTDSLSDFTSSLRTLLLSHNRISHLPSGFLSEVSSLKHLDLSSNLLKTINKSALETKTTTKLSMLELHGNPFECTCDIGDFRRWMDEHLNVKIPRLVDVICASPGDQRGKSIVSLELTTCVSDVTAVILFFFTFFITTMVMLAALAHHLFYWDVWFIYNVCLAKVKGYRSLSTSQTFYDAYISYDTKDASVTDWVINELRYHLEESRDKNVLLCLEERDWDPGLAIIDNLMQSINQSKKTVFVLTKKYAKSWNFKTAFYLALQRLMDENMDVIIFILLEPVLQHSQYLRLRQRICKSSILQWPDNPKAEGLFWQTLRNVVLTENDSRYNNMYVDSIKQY
Test: TLR8 human PBMC cell-based assay, TLR8 agonist Compound A stimulation, cytokine (TNFa and IL12p40) readout
Details: human PBMCs, Compound A 800 nM, 6 hours; Table 26; read-out: TLR-8 EC50
Experimental: Cryopreserved human PBMCs from healthy donors were thawed and resuspended in RPMI-1640 media with L-glutamine (Corning) supplemented with 10% Fetal Bovine Serum (Hyclone) and 1X Penicillin-Streptomycin (Corning). After counting, the cell density was adjusted to 2 million cells/ml and incubated for 1 hour at 37° C., 5% CO2 for recovery. Following the recovery, the cells were plated by adding 50p per well (100,000 cells) to 384-well cell culture plates (Greiner) containing 250nl of test antagonists in 100% DMSO per well, in a 10 points dose response in quadruplicates. PBMCs were incubated in the presence of antagonists for one hour at 37° C., 5% CO2 before being stimulated with TLR8 agonist. Compound A (Gilead Sciences, U.S. Pat. No. 10,285,990) was used as the TLR8 agonist at a final concentration of 800 nM. PBMCs were incubated in the presence of antagonist and the TLR8 agonist for an additional 6 hours at 37° C., […]. At the end of the incubation, the cell culture plates were centrifuged at 500 g for 5 min, and the cell culture supernatant was collected. The level of cytokines (TNFa and IL12p40) in the supernatant was measured by electrochemiluminescence immunoassays (Mesoscale Discovery) following manufacturer's recommended protocols. The level of cytokine measured was plotted against the antagonist concentration and fitted to a sigmoidal function to determine the EC50, which are shown below in Table 11.

SMILES | EC50 [nM]
Cc1cc(-c2[nH]c3cc(-c4ccc(N5CCNCC5)nc4)ccc3c2C)cc(C)n1 [Example 1, 2-(2,6-dimethylpyridin-4-yl)-3-methyl-6-(6-(piperazin-1-yl)pyridin-3-yl)-1H-indole] | 770
Cc1cc(-c2[nH]c3cc(-c4ccc(N5CCN(CCO)CC5)nc4)ccc3c2C)cc(C)n1 [Example 37, 2-(4-(5-(2-(2,6-dimethylpyridin-4-yl)-3-methyl-1H-indol-6-yl)pyridin-2-yl)piperazin-1-yl)ethan-1-ol] | 631
Cc1cc(-c2[nH]c3cc(C4CCNCC4)ccc3c2C)cc(C)n1 [Example 48, 2-(2,6-dimethylpyridin-4-yl)-3-methyl-6-(piperidin-4-yl)-1H-indole] | 570
Cc1cc(-c2[nH]c3cc(C4CCNCC4)ccc3c2C(C)C)cn2ncnc12 [Example 55] | 9.08
Cc1c(-c2cc(C)c3ncnn3c2)[nH]c2cc(-c3ccc(N4CCNCC4)nc3)ccc12 [Example 71] | 35.9

Stronger by EC50, values ahead:

EC50 [nM] | SMILES
8.46 | Cc1cc(-c2[nH]c3cc(-c4ccc(N5CCNCC5)nc4)ccc3c2C2CC2)cn(C)c1=O [Example 165]
3.75 | CCc1c(-c2cc(C)c3ncnn3c2)[nH]c2cc(-c3ccc(N4CCNCC4)nc3)ccc12 [Example 167, 6-(3-ethyl-6-(6-(piperazin-1-yl)pyridin-3-yl)-1H-indol-2-yl)-8-methyl-[1,2,4]triazolo[1,5-a]pyridine]
3.35 | CCc1c(-c2cc(OC)c3ncnn3c2)[nH]c2cc(-c3ccc(N4CCNCC4)nc3)ccc12 [Example 169]
